Test results: patent US20240140950A1, “NITROGEN-CONTAINING POLYCYCLIC AROMATIC COMPOUND, and PREPARATION METHOD AND APPLICATION THEREOF” (priority 2021, published 2024)
Like-named read-outs stand apart in the source and are kept apart here.

Assays:
cancer cell HELA = assay: MTT cell inhibition assay, HELA; type: cell-based; conditions: 48 h
Experimental: (§4) Two cancer cell lines HELA and MCF-7 in the logarithmic phase and the human normal cell line 293T are taken and the cells thereof are counted with a cell counting plate, and then the concentration of the cell suspension is adjusted to 10^5 cells/mL. The cells are inoculated into a 96-well plate with 100 μL of cell suspension for each well. After the cell suspension is evenly distributed, and the plate is placed into a CO2 incubator for incubation. […] For each drug to be tested and control groups, 100 μL of the drug to be tested is added to each well; and four parallel replicates are set for each concentration. After 48 h cultivation, 10 μL MTT is added for another 4 h cultivation, and the supernatant is discarded. 100 μL analytically pure dimethyl sulfoxide is added, and shaken evenly on a shaking table. After the solution is completely uniform, its absorbance is measured at a wavelength of 490 nm with a microplate reader. The experiment is repeated twice.

cancer cell MCF-7 = assay: MTT cell inhibition assay, MCF-7; type: cell-based
Experimental: as §4

human normal cell 293T = assay: MTT cytotoxicity assay, human normal cell 293T; type: cell-based; conditions: 48 h, read-out: IC50 value of the inhibition on human normal cell 293T
Experimental: Two cancer cell lines HELA and MCF-7 in the logarithmic phase and the human normal cell line 293T are taken and the cells thereof are counted with a cell counting plate, and then the concentration of the cell suspension is adjusted to 10^5 cells/mL. The cells are inoculated into a 96-well plate with 100 μL of cell suspension for each well. After the cell suspension is evenly distributed, and the plate is placed into a CO2 incubator for incubation. The drug to be tested is added after the cells grow uniformly and have spread on all the bottom of the culture dish. DMEM culture solution is used as a negative control group (the drug to be tested is completely dissolved in the culture solution without dissolving it in DMSO), and cisplatin is used as a positive control group. For each drug to be tested and control groups, 100 μL of the drug to be tested is added to each well; and four parallel replicates are set for each concentration. After 48 h cultivation, 10 μL MTT is added for another 4 h cultivation, and the supernatant is discarded. 100 μL analytically pure dimethyl sulfoxide is added, and shaken evenly on a shaking table. After the solution is completely uniform, its absorbance is measured at a wavelength of 490 nm with a microplate reader. The experiment is repeated twice.

[1] = test system: human lung cancer cell A549; assay: CCK-8 cell survival assay, A549; type: cell-based; conditions: CCK-8, 48 h, read-out: IC50 value of the inhibition on A549
Experimental: (§1) a. […] Reagents • CCK8 reagent kit, purchased from TargetMol China; Annexin V-FITC/PI double staining cell apoptosis detection kit, purchased from Seven Biotech Company. c. Instruments • Multi-function microplate reader FLUOstar Omega, purchased from BMG LABTECH, Germany; • Flow cytometer, purchased from BD Company, United States. d. Experimental Method
(§2) The cells in logarithmic phase with good condition are taken and digested with trypsin, and the prepared culture medium is added to prepare a cell suspension, the cell density being adjusted to 5×10^4 cells/mL. The digested cells are inoculated into a 96-well plate, in which 100 μL of cell suspension is added to each well, and incubated overnight in a cell incubator at 37° C. with 5% CO2. After the cells grow adhered to the wall, the blank control group and the compound groups to be tested with different concentration gradients are set up respectively. […] The optical density value (OD) is measured by using a multifunctional enzyme-linked immunosorbent assay instrument, the wavelength setting to 450 nm. The experiment is repeated for three times, the cell survival rates of different drug concentrations in each group are calculated and counted according to a formula: cell survival rate=(experimental group−blank control group/control group)×100%, and the results are calculated with GraphPad Prism software.

human melanoma A375 = assay: CCK-8 cell survival assay, A375; type: cell-based; conditions: CCK-8, 48 h, read-out: IC50 value of the inhibition on A375
Experimental: as §1, §2

[2] = test system: A549 Human lung cancer cell; assay: Flow cytometric detection of cell apoptosis (Annexin V-FITC/PI), A549; type: cell-based; conditions: 48 h
Experimental: (§3) The cells that are in logarithmic phase and have good condition are taken, digested with trypsin, the prepared culture medium is added to prepare a cell suspension, and the cell density is adjusted to 5×10^4 cells/mL. The digested cells are inoculated in 6-well plate, in which 2 mL cell suspension is added to each well, and incubated overnight in a cell incubator at 37° C. with 5% CO2. After the cells are adhered to the wall, a blank control group and the group of experimental drug to be tested with different concentration gradients are set respectively. 2 mL drug is added to each well for further cultivation for 48 h, and EDTA-free trypsin is used for cell digestion and the digested cells are collected. For the apoptosis detection, the collected cells are required to be adjusted to the cell density of 1×10^6 cells/mL, put into a 5 mL centrifuge tube and centrifuged at 1000 rpm for 5 min, and then washed with PBS for three times. 100 μL Binding Buffer is added to resuspend the cells, and except for the single-stained control and blank control cells, 5 μL FITC and 5 μL PI are added to each tube, mixed gently, and incubated at room temperature in the dark for 15 min. 400 μL Binding Buffer is added into each well before testing on the machine, and mixed and tested on the machine. • Blank control: drug-induced apoptotic cells—without adding a fluorescent reagent (the voltage of scattered light is adjusted to determine the FSC SSC of the population). • Negative control: normal cells (without drug treatment)—added with all the fluorescent staining reagents of the experiment (at the lower left corner, the voltage of the two fluorescent channels is determined). • Single-stained control: one tube each for FITC and PI, positive control for compensation adjustment: drug-induced apoptotic cells or heat-induced apoptotic cells are added with all fluorescent reagents of the experiment (confirming that there is no problem with reagents, instruments and operations).

[3] = test system: human triple negative breast cancer MDA-MB-231; assay: CCK-8 cell survival assay, MDA-MB-231; type: cell-based; conditions: CCK-8, 48 h, read-out: IC50 value of the inhibition on MDA-MB-231
Experimental: as §1, §2

A375 Human melanoma = assay: Flow cytometric detection of cell apoptosis (Annexin V-FITC/PI), A375; type: cell-based; conditions: 48 h
Experimental: as §3

mouse myeloma SP2/0 = assay: CCK-8 cell survival assay, SP2/0; type: cell-based; conditions: CCK-8, 48 h, read-out: IC50 value of the inhibition on SP2/0
Experimental: as §1, §2

[4] = test system: MDA-MB-231 Human triple negative breast cancer; assay: Flow cytometric detection of cell apoptosis (Annexin V-FITC/PI), MDA-MB-231; type: cell-based; conditions: 48 h
Experimental: as §3

KM mice = assay: Mouse toxicity test (acute, intraperitoneal); type: in vivo
Source text: 12 KM mice with body weight 18 g to 22 g and age of 4 to 6 weeks are taken and fed adaptively for 7 days. All mice may eat freely and be provided with sufficient fresh drinking water. The feeding environment for mice meets the standard of SPF laboratory animal level environmental facility.
The behavioral changes after administration and death within 14 days of the animals are observed.

SP2/0 Mouse myeloma = assay: Flow cytometric detection of cell apoptosis (Annexin V-FITC/PI), SP2/0; type: cell-based; conditions: for Apoptosis in early stage / Apoptosis in late stage: 48 h
Experimental: as §3

[5] = KM mice, 40 mg/kg intraperitoneal

Cc1ccc2c(c1)C13CCNC1C1(C)c4[nH]c5ccc(C)cc5c4CCN1C3N2 (stereo not shown) [Compound 20]
IC50 (cancer cell HELA; Homo sapiens, HeLa): 40.1 µM

Cc1ccc2c(c1)C13CCNC1(C)C1(C)c4[nH]c5ccc(C)cc5c4CCN1C3N2 (stereo not shown) [Compound 15]
IC50 (cancer cell MCF-7; Homo sapiens, MCF7, 48 h): 29.8 µM | IC50 (cancer cell HELA; Homo sapiens, HeLa): 23.6 µM | IC50 (human normal cell 293T; Homo sapiens, HEK-293T): 134 µM

COc1ccc2c(c1)C13CCNC1(C)C1(C)c4[nH]c5ccc(OC)cc5c4CCN1C3N2 (stereo not shown) [Compound 14]
IC50 ([1]; Homo sapiens, A549): 30.8 ± 1.72 µM | IC50 (human melanoma A375; Homo sapiens, A-375): 17.1 ± 1.45 µM | Apoptosis in early stage ([2]; A549, 10 μM): 4.12 ± 1.73% | Apoptosis in late stage ([2]; A549, 10 μM): 9.70 ± 1.18% | Apoptosis in early stage ([2]; A549, 30 μM): 16.23 ± 0.90% | Apoptosis in late stage ([2]; A549, 30 μM): 16.08 ± 0.62% | Apoptosis in early stage ([2]; A549, 60 μM): 41.28 ± 5.36% | Apoptosis in late stage ([2]; A549, 60 μM): 27.32 ± 1.22% | IC50 ([3]; Homo sapiens, MDA-MB-231): 26 ± 1.43 µM | Apoptosis in early stage (A375 Human melanoma; A375, 10 μM): 27.41 ± 1.87% | Apoptosis in late stage (A375 Human melanoma; A375, 10 μM): 10.03 ± 1.87% | Apoptosis in early stage (A375 Human melanoma; A375, 20 μM): 34.09 ± 3.2% | Apoptosis in late stage (A375 Human melanoma; A375, 20 μM): 13.17 ± 2.30% | IC50 (mouse myeloma SP2/0; Mus musculus): 15.1 ± 2.91 µM | Apoptosis in early stage ([4]; MDA-MB-231, 15 μM): 9.21 ± 1.14% | Apoptosis in late stage ([4]; MDA-MB-231, 15 μM): 13.41 ± 1.24% | Apoptosis in early stage ([4]; MDA-MB-231, 30 μM): 17.70 ± 3.31% | Apoptosis in late stage ([4]; MDA-MB-231, 30 μM): 16.33 ± 0.72% | Apoptosis in early stage ([4]; MDA-MB-231, 45 μM): 20.83 ± 2.79% | Apoptosis in late stage ([4]; MDA-MB-231, 45 μM): 23.66 ± 1.70% | behavioral changes after administration (KM mice; KM mice, 20 mg/kg intraperitoneal): no abnormalities | behavior and spirit of the animals (KM mice; [5]): normal | death within 14 days (KM mice; [5]): no death occurs | death within 14 days (KM mice; KM mice, 60 mg/kg intraperitoneal): one animal dies on the sixth day | death within 14 days (KM mice; KM mice, 80 mg/kg intraperitoneal): two animals die on the second day | lethal dose (KM mice; KM mice, intraperitoneal, single injection, 14 days observation): about 60 mg/kg | body weight / weight gain (KM mice; mouse, in vivo, ip, 20 mg/kg): not significantly different | weight gain compared with the negative control group (KM mice; mouse, in vivo, ip, 40 mg/kg): slower | Apoptosis in early stage (SP2/0 Mouse myeloma; SP2/0, 10 μM): 13.15 ± 0.57% | Apoptosis in late stage (SP2/0 Mouse myeloma; SP2/0, 10 μM): 13.44 ± 1.50% | Apoptosis in early stage (SP2/0 Mouse myeloma; SP2/0, 20 μM): 35.97 ± 3.37% | Apoptosis in late stage (SP2/0 Mouse myeloma; SP2/0, 20 μM): 26.65 ± 1.64% | total apoptosis rate at early and late stages (SP2/0 Mouse myeloma; SP2/0, 30 μM): 97% | Apoptosis in early stage (SP2/0 Mouse myeloma; SP2/0, 30 μM): 58.56 ± 1.26% | Apoptosis in late stage (SP2/0 Mouse myeloma; SP2/0, 30 μM): 39.36 ± 0.87%

N.N.[Cl][Pt][Cl] [Cisplatin, cisplatin, reference compound]
IC50 [1]: 35.8 ± 1.89 µM | IC50 (human melanoma A375): 16.4 ± 0.36 µM | IC50 (cancer cell MCF-7; 48 h): 14.2 µM | IC50 [3]: 23.4 ± 1.75 µM | IC50 (mouse myeloma SP2/0): 17.4 ± 1.24 µM | IC50 (cancer cell HELA): 13.2 µM | IC50 (human normal cell 293T): 17.3 µM
